The values that follow come from US10851084B2, “Piperazine derivatives as TRPML modulators” (CalyGene Biotechnology, Inc., priority 2016, dated 2020).

One experiment deals with HaCat cells. As to the kind of experiment: UV treatment and ROS staining. The settings on record: 600 J/m^2 UV (254 nm), H2DCFDA, FIG. 3. The format is cell-based, human. The procedure:
HaCat cells (a human keratinocyte cell line) at a confluency of around 50% were incubated with 20 µM H2DCFDA (Sigma) in the culture media without FBS at 37° C. for 30 min, and then washed twice with phosphate buffered saline (PBS, pH 7.4) before being exposed to UV. A CL-1000 UV Crosslinker (UVP) is used to shed 600 J/m^2 of UV light (254 nm) on the HaCat cells in all experiments. Fluorescent images were obtained right after UV exposure, via an Olympus IX73 microscopy (Olympus) and Metamorph software (Molecular Devices).

A further experiment has as its system TFEB. As to the kind of experiment: TFEB nuclear translocation assay. The format is cell-based. The conditions noted are these: HEK293 cells stably expressing GFP-TFEB; dose-dependent, FIG. 2. As for the experimental part:
TFEB is a transcription factor and master regulator of lysosome biogenesis and autophagy. TFEB activation is shown to induce cellular clearance in a variety of LSDs and common neurodegenerative diseases.
Intracellular TFEB localization is determined either by immunofluorescence in Hela cells or by fluorescent microscopy in Hela cells stably expressing TFEB-GFP. Detailed procedures are as follows.
Cells grown on cover slips were treated with TRPML1 agonist(s) or antagonist(s) for indicated time period and then fixed with 4% paraformaldehyde for 15 minutes at room temperature. For immunofluorescent detection of endogenous TFEB, cells were permeabilized with 0.3% Triton X-100, blocked with 1% bovine serum albumin (BSA) in phosphate buffered saline (PBS) and then immunostained with anti-TFEB antibody (1:200; Cell Signaling Technology) at 4° C. for overnight. The stained cells were then incubated with secondary antibodies conjugated to Alexa Fluor 568 or 488 (ThermoFisher) for 1 h, then 4′,6-diamidino-2-phenylindole (DAPI) for 15 minutes (to stain the cell nucleus) and mounted on glass slides with Fluoromount-G (Southern Biotech) for observation. […]
Average ratios of nuclear versus cytosolic TFEB fluorescence intensity (>50 randomly-selected cells per experiment) were determined with ImageJ software (NIH).

In a further experiment the target is T1, TRPML2 (Homo sapiens, UniProt Q8IZK6).
T1 sequence (Q8IZK6 1-566): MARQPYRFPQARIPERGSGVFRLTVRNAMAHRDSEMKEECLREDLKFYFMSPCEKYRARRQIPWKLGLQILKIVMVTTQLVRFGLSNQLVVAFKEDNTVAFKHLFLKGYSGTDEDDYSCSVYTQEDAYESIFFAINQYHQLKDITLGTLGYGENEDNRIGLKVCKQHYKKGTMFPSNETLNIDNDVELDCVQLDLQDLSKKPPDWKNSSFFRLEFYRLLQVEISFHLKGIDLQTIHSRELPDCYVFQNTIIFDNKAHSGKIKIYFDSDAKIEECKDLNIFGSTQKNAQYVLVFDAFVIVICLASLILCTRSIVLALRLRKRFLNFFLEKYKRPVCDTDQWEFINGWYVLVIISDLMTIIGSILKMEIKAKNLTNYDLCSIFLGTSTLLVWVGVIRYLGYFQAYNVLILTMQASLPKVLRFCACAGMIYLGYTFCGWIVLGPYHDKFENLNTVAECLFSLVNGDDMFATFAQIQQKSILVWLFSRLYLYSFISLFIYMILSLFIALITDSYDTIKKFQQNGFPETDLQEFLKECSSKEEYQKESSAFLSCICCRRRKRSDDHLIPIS
The conditions noted are these: cited from earlier work.

A further experiment deals with TRPML1. The settings on record: cited from earlier work.
The next experiment deals with T2, TRPML3 (Homo sapiens, UniProt Q8TDD5).
T2 sequence (Q8TDD5 1-553): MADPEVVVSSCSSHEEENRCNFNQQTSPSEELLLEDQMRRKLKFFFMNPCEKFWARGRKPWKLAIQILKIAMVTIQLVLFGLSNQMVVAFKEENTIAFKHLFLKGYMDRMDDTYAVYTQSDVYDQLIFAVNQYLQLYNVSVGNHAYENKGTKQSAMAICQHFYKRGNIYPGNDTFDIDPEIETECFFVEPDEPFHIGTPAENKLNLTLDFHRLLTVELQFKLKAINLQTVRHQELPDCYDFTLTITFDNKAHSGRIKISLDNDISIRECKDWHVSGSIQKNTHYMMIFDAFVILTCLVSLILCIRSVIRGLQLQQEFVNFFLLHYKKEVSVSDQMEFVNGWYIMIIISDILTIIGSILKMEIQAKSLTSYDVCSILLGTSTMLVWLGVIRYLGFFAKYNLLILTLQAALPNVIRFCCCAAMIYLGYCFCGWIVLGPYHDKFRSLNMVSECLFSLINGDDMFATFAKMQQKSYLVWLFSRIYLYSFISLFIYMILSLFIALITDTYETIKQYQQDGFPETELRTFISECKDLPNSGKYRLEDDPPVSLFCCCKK
The conditions noted are these: cited from earlier work.

The next experiment has as its system ML1-4A. The settings on record: HEK293 cells stably or transiently expressing ML1-4A; cited from earlier work.
In experiment [1] the target is T3, endogenous whole-endolysosome TRPML-like current (IML-L) (Homo sapiens, UniProt Q9GZU1).
T3 construct: host or cells: endogenous in human fibroblasts (WT and ML4); also CHO, Cos-1, HEK293, skeletal muscle, pancreatic β and macrophage cells
T3 sequence (Q9GZU1 whole entry): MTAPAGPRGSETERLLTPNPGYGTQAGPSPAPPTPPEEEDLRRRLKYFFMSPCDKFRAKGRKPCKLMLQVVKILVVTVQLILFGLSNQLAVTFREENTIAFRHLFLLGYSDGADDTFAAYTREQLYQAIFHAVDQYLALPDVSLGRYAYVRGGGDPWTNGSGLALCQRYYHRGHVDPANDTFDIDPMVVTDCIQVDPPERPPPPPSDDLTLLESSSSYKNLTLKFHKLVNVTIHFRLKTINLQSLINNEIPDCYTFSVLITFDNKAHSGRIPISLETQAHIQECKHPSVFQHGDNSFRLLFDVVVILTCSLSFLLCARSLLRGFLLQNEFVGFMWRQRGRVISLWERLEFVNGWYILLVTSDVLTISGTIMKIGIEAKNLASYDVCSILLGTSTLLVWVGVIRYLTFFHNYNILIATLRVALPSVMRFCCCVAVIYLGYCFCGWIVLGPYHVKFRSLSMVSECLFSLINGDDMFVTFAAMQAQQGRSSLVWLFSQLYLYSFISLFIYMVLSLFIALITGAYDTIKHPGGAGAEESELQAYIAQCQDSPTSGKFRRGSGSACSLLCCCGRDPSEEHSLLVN
The settings on record: wild-type (WT; ML1+/+) human fibroblasts; cited from earlier work.

Experiment [2] relates to endogenous whole-endolysosome TRPML-like current (IML-L). The conditions noted are these: cited from earlier work.
Experiment [3] relates to six other related channels. The conditions noted are these: cited from earlier work.
For a further experiment, the system named is TRPMLs. The conditions noted are these: cited from earlier work.

Each structure is given as a SMILES string.

As for `CN(C)S(=O)(=O)c1ccc(S(=O)(=O)Nc2ccccc2N2CCN(c3ccc(Cl)cc3F)CC2)cc1` [Example 8, N1-[2-[4-(4-Chloro-2-fluorophenyl)-1-piperazinyl]phenyl]-N4,N4-dimethylbenzene-1,4-disulfonamide], the “UV induced ROS” value in the experiment with HaCat cells is recorded as “significantly reduced”. Further, the “TFEB-nuclear translocation (nuclear to cytosol ratio)” value in the experiment with TFEB was “sufficient to induce TFEB-nuclear translocation”.
In the case of `CC1CC(C)(C)N(C(=O)CN2C(=O)c3ccccc3C2=O)c2ccccc21` (stereo not shown) [ML-SA1], the “activation of whole-cell ITRPML2” value at TRPML2 is reported as “activated”. Moreover, in the experiment with TRPML1 (ML-SA1 10 μM), the “activation of whole-endolysosome IML1 compared with PI(3,5)P2 (1 μM)” value is reported as “comparable”. Besides, in the experiment on TRPML1 (whole-cell), the “activation of whole-cell IML1-4A” value is “robustly activated”. For the same compound, in the experiment with TRPML1 (whole-endolysosome), the “activation of whole-endolysosome IML1” value is “robustly activated”. At TRPML3, the “activation of whole-cell ITRPML3” value is “activated”. For the same compound, in the experiment on ML1-4A, the “[Ca2+]cyt increases” value was “significant”. Besides, the “activation of whole-endolysosome IML-L” value in [1] is “activated”; in experiment [2] (ML4 (ML1−/−) human fibroblasts), “not”. The “activation of endogenous whole-endolysosome IML-L” value in experiment [2] (all mammalian cell types investigated (CHO, Cos-1, HEK293, skeletal muscle, pancreatic β, macrophage cells)) is recorded as “activated”. Besides, in experiment [3], the “activation of six other related channels” value was “not”. Moreover, the “concentration needed to effectively activate TRPMLs” value with TRPMLs was roughly 10 µM.
